Assay results reported in US20110293744A1, “BENZOXAZOLE INHIBITORS OF POLY(ADP-RIBOSE)POLYMERASE” (ABBOTT LABORATORIES, priority 2009, published 2011).

Biological target: T1, Recombinant Human Poly(ADP-Ribose) Polymerase (PARP), PARP-1 (Homo sapiens, UniProt P09874)
T1 construct: purchased Trevigen; host or cells: E. coli
Assay: PARP Enzyme Inhibition Assay (PARP1, SPA/FlashPlate)
Assay type: biochemical
Settings: 1 nM PARP enzyme, [3H]-NAD+, 200 nM biotinylated histone H1, 200 nM slDNA
Procedure: Nicotinamide[2,5′,8-3H]adenine dinucleotide and strepavidin SPA beads were purchased from Amersham Biosiences. Recombinant Human Poly(ADP-Ribose) Polymerase (PARP), purified from E. coli and 6-Biotin-17-NAD^+, were purchase from Trevigen. NAD^+, histone, aminobenzamide, 3-amino benzamide and Calf Thymus DNA (dcDNA) were purchased from Sigma. Stem loop oligonucleotide containing MCAT sequence was obtained from Qiagen. The oligos were dissoloved to 1 mM in annealing buffer containing 10 mM Tris HCl pH 7.5, 1 mM EDTA, and 50 mM NaCl, incubated for 5 minutes at 95° C., and annealed at 45° C. for 45 minutes. Histone H1 (95% electrophoretically pure) was purchased from Roche. Biotinylated histone H1 was prepared by treating the protein with Sulfo-NHS-LC-Biotin from Pierce. The biotinylation reaction was conducted by slowly and intermittently adding 3 equivalents of 10 mM Sulfo-NHS-LC-Biotin to 100 μM Histone H1 in phosphate-buffered saline, pH 7.5, at 4° C. with gentle vortexing over 1 minute followed by subsequent 4° C. incubation for 1 hour. Streptavidin coated (FlashPlate Plus) microplates were purchased from Perkin Elmer.
PARP1 assay was conducted in PARP assay buffer containing 50 mM Tris pH 8.0, 1 mM DTT, 4 mM MgCl2. PARP reactions contained […] [^3H]-NAD^+ (1.6 uCi/mmol), 200 nM biotinylated histone H1, 200 nM slDNA, and 1 nM PARP enzyme. Auto reactions utilizing SPA bead-based detection were carried out in 100 μL volumes in white 96 well plates. Reactions were initiated by adding 50 μl of 2×NAD^+ substrate mixture to 50 μL of 2× enzyme mixture containing PARP and DNA. These reactions were terminated by the addition of 150 μL of 1.5 mM benzamide (˜1000-fold over its IC50). 170 μL of the stopped reaction mixtures were transferred to streptavidin Flash Plates, incubated for 1 hour, and counted using a TopCount microplate scintillation counter.

T1 sequence (P09874 whole entry): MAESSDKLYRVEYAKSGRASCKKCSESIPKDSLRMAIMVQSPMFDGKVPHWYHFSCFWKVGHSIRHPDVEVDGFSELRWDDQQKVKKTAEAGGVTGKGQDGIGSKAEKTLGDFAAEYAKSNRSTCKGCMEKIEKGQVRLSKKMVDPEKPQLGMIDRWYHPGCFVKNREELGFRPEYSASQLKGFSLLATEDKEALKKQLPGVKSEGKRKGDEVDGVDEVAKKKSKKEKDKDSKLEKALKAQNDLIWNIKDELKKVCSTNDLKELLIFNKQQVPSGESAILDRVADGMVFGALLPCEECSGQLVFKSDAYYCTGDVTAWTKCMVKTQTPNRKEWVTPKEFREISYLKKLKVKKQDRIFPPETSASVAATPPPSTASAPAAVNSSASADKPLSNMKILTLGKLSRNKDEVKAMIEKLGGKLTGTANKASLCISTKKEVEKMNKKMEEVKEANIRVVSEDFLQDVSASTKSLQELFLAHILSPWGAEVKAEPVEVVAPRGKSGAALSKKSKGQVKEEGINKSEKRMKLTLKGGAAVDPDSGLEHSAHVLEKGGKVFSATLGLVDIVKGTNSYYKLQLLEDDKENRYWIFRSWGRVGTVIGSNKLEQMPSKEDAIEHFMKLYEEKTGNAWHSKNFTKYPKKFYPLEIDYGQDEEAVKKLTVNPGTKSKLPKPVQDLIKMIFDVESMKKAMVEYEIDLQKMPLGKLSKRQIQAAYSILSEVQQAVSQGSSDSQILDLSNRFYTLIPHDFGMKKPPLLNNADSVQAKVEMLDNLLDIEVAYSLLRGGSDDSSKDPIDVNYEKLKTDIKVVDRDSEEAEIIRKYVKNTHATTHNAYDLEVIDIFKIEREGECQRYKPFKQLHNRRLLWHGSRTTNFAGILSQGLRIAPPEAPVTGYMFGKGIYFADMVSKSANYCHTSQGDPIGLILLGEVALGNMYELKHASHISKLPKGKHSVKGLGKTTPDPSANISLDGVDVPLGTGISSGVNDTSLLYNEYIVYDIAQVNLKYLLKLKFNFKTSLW

SMILES | Ki
NC(=O)c1cccc2nc(-c3ccc(-c4ccc5c(c4)OCO5)cc3)oc12 [Example 6, 2-[4-(1,3-benzodioxol-5-yl)phenyl]-1,3-benzoxazole-7-carboxamide] | 841 nM
NC(=O)c1cccc2oc(-c3ccccc3)nc12 [Example 12, 2-phenyl-1,3-benzoxazole-4-carboxamide] | 506 nM
NC(=O)c1cccc2nc(-c3ccc(Br)cc3)oc12 [Example 4, 2-(4-bromophenyl)-1,3-benzoxazole-7-carboxamide] | 48 nM
NC(=O)c1cccc2nc(-c3ccc(-c4ccccc4)cc3)oc12 [Example 5, 2-(1,1′-biphenyl-4-yl)-1,3-benzoxazole-7-carboxamide] | 196 nM
NC(=O)c1cccc2nc(-c3ccc(-c4cc[nH]n4)cc3)oc12 [Example 7, 2-[4-(1H-pyrazol-3-yl)phenyl]-1,3-benzoxazole-7-carboxamide] | 109 nM
NC(=O)c1cccc2nc(-c3ccc(-c4ccccn4)cc3)oc12 [Example 11, 2-(4-pyridin-2-ylphenyl)-1,3-benzoxazole-7-carboxamide] | 11 nM
NC(=O)c1cccc2nc(-c3ccc(-c4cccc(N)c4)cc3)oc12 [Example 8, 2-(3′-amino-1,1′-biphenyl-4-yl)-1,3-benzoxazole-7-carboxamide] | 3250 nM

Results, then the compound that gave them:

Ki | SMILES
1620 nM | NC(=O)c1cccc2nc(-c3ccc(-c4ccncc4)cc3)oc12 [Example 10, 2-(4-pyridin-4-ylphenyl)-1,3-benzoxazole-7-carboxamide]
63 nM | NC(=O)c1cccc2nc(-c3ccc(-c4cccnc4)cc3)oc12 [Example 9, 2-(4-pyridin-3-ylphenyl)-1,3-benzoxazole-7-carboxamide]
9180 nM | NC(=O)c1cccc2oc(-c3ccc(-c4ccccc4)cc3)nc12 [Example 2, 2-(1,1′-biphenyl-4-yl)-1,3-benzoxazole-4-carboxamide]
312 nM | NC(=O)c1cccc2oc(-c3ccc(-c4cccnc4)cc3)nc12 [Example 3, 2-(4-pyridin-3-ylphenyl)-1,3-benzoxazole-4-carboxamide]
142 nM | NC(=O)c1cccc2oc(-c3ccc(Br)cc3)nc12 [Example 1, 2-(4-bromophenyl)-1,3-benzoxazole-4-carboxamide]
